Assay results taken from patent US20230120564A1, “PYRIDO[3,4-D]PYRIMIDINE DERIVATIVE AND THERAPEUTIC PHARMACEUTIC COMPOSITION COMPRISING SAME” (KOREA INSTITUTE OF SCIENCE AND TECHNOLOGY, priority 2020, published 2023).

Key:
Assay in all cases: full kinase panel biochemical assay
[1] = biological target: BLK (Homo sapiens, UniProt P51451); settings: single concentration of 1 μM; read-out: percent inhibition of BLK
Experimental: (§1) In order to measure the protein kinase inhibitory activity (% inhibition) of the compound of the present invention, biochemical assay was performed in the full kinase panel. As a test compound, Compound No. 4 was used. The percent inhibition of each kinase when treated with the test compound at a single concentration of 1 μM was measured, and the residual enzyme activity values (%) of the kinases were calculated. Kinases whose calculated residual enzyme activity values (%) was 30% or less (i.e., kinases inhibited by 70% or more) are as follows: ABL1, ABL2/ARG, ACK1, ARAF, BLK, BMX/ETK, BRAF, BRK, BTK, c-Kit, c-Src, CSK, DDR1, DDR2, EPHA1, EPHA2, EPHA3, EPHA4, EPHA5, EPHA6, EPHA7, EPHA8, EPHB1, EPHB2, EPHB3, EPHB4, ERBB2/HER2, ERBB4/HER4, FGFR1, FGFR2, FGFR3, FGR, FLT1/VEGFR1, FLT4/VEGFR3, FMS, FRK/PTK5, FYN, GCK/MAP4K2, HCK, HGK/MAP4K4, JAK1, JAK2, KDR/VEGFR2, KHS/MAP4K5, LCK, LYN, LYN B, MEKK1, MLK4, MYLK3, NEK5, P38a/MAPK14, P38b/MAPK11, PDGFRa, PDGFRb, PEAK1, RET, RIPK2, RIPK4, SIK2, SRPK1, TAOK3/JIK, TLK1, TNK1, TXK, TYK2, YES/YES1, YSK4/MAP3K19, and ZAK/MLTK.

[2] = biological target: BMX/ETK (Homo sapiens, UniProt P51813); settings: single concentration of 1 μM; read-out: percent inhibition of BMX/ETK
Experimental: as §1

[3] = biological target: BRAF (Homo sapiens, UniProt P15056); settings: single concentration of 1 μM; read-out: percent inhibition of BRAF
Experimental: as §1

[4] = biological target: BRK (Homo sapiens, UniProt Q13882); settings: single concentration of 1 μM; read-out: percent inhibition of BRK
Experimental: as §1

[5] = biological target: BTK (Homo sapiens, UniProt Q06187); settings: single concentration of 1 μM; read-out: percent inhibition of BTK
Experimental: as §1

[6] = biological target: DDR1 (Homo sapiens, UniProt Q08345); settings: single concentration of 1 μM; read-out: percent inhibition of DDR1
Experimental: as §1

[7] = biological target: EPHB2 (Homo sapiens, UniProt P29323); settings: single concentration of 1 μM; read-out: percent inhibition of EPHB2
Experimental: as §1

[8] = biological target: ERBB2/HER2 (Homo sapiens, UniProt P04626); settings: single concentration of 1 μM; read-out: percent inhibition of ERBB2/HER2
Experimental: as §1

[9] = biological target: FGFR2 (Homo sapiens, UniProt P21802); settings: single concentration of 1 μM; read-out: percent inhibition of FGFR2
Experimental: as §1

[10] = biological target: FRK/PTK5 (Homo sapiens, UniProt P42685); settings: single concentration of 1 μM; read-out: percent inhibition of FRK/PTK5
Experimental: as §1

[11] = biological target: GCK/MAP4K2 (Homo sapiens, UniProt Q12851); settings: single concentration of 1 μM; read-out: percent inhibition of GCK/MAP4K2
Experimental: as §1

[12] = biological target: HCK (Homo sapiens, UniProt P08631); settings: single concentration of 1 μM; read-out: percent inhibition of HCK
Experimental: as §1

[13] = biological target: LYN (Homo sapiens, UniProt P07948); settings: single concentration of 1 μM; read-out: percent inhibition of LYN
Experimental: as §1

[14] = biological target: MYLK3 (Homo sapiens, UniProt Q32MK0); settings: single concentration of 1 μM; read-out: percent inhibition of MYLK3
Experimental: as §1

[15] = biological target: PDGFRa (Homo sapiens, UniProt P16234); settings: single concentration of 1 μM; read-out: percent inhibition of PDGFRa
Experimental: as §1

[16] = biological target: RET (Homo sapiens, UniProt P07949); settings: single concentration of 1 μM; read-out: percent inhibition of RET
Experimental: as §1

[17] = biological target: RIPK2 (Homo sapiens, UniProt O43353); settings: single concentration of 1 μM; read-out: percent inhibition of RIPK2
Experimental: as §1

[18] = biological target: SIK2 (Homo sapiens, UniProt Q9H0K1); settings: single concentration of 1 μM; read-out: percent inhibition of SIK2
Experimental: as §1

[19] = biological target: TAOK3/JIK (Homo sapiens, UniProt Q9H2K8); settings: single concentration of 1 μM; read-out: percent inhibition of TAOK3/JIK
Experimental: as §1

[20] = biological target: TLK1 (Homo sapiens, UniProt Q9UKI8); settings: single concentration of 1 μM; read-out: percent inhibition of TLK1
Experimental: as §1

[21] = biological target: TYK2 (Homo sapiens, UniProt P29597); settings: single concentration of 1 μM; read-out: percent inhibition of TYK2
Experimental: as §1

[22] = biological target: YES/YES1 (Homo sapiens, UniProt P07947); settings: single concentration of 1 μM; read-out: percent inhibition of YES/YES1
Experimental: as §1

[23] = biological target: YSK4/MAP3K19 (Homo sapiens, UniProt Q56UN5); settings: single concentration of 1 μM; read-out: percent inhibition of YSK4/MAP3K19
Experimental: as §1

[24] = biological target: ZAK/MLTK (Homo sapiens, UniProt Q9NYL2); settings: single concentration of 1 μM; read-out: percent inhibition of ZAK/MLTK
Experimental: as §1

Measured: inhibition at 1 µM

Chain of ERBB2/HER2 (P04626 23-1255): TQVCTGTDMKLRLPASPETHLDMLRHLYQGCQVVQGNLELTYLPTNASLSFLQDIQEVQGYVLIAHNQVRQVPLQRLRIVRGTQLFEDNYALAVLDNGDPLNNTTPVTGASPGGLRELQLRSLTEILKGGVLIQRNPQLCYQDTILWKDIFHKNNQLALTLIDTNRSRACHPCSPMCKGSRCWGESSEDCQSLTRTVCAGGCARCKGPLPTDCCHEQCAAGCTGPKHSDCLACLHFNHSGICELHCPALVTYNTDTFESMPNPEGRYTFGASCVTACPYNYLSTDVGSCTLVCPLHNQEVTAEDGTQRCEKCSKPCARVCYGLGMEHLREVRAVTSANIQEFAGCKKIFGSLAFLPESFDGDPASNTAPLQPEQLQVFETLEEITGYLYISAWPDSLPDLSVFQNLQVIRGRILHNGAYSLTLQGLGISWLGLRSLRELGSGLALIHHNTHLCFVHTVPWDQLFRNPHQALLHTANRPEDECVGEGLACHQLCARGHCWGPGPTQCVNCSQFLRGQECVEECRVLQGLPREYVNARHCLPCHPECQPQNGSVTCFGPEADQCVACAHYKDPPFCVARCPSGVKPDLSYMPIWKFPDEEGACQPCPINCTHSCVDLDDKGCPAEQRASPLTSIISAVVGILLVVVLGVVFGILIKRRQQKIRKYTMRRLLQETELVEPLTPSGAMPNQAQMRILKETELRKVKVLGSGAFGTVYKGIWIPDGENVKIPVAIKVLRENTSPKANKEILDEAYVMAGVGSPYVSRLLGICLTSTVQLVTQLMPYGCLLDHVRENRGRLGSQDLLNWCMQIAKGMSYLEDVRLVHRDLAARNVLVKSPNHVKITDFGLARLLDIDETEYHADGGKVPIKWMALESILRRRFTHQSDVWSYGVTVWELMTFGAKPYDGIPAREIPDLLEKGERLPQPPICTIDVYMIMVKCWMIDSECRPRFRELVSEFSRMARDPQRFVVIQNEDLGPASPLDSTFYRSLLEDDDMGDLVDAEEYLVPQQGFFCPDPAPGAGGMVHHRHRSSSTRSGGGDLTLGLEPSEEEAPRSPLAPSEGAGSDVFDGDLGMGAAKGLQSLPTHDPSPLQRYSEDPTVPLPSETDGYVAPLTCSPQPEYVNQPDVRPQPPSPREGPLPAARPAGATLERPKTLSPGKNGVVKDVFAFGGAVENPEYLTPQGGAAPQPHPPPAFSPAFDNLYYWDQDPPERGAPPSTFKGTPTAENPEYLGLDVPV
Chain of GCK/MAP4K2 (Q12851 whole entry): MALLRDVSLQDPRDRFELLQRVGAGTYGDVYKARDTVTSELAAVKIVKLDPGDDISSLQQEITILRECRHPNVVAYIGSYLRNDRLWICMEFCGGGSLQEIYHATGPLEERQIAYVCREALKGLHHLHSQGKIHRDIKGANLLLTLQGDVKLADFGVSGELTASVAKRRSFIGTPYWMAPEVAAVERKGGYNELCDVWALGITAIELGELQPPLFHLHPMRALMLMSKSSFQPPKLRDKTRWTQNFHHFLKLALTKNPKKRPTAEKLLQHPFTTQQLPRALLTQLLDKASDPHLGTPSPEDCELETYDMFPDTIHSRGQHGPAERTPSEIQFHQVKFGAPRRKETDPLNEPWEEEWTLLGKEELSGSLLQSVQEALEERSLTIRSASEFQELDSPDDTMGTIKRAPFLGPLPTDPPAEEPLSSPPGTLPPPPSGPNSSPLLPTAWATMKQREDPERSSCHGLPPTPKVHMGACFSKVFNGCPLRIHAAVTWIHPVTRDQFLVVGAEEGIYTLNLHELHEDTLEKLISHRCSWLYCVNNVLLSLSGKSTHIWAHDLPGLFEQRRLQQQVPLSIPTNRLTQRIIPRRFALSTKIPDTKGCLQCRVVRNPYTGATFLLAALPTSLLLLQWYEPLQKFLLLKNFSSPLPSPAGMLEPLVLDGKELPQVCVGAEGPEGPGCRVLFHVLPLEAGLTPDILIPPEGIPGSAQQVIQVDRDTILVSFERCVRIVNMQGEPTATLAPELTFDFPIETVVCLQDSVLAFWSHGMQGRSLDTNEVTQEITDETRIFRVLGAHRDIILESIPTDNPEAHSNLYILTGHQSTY
Chain of DDR1 (Q08345 19-913): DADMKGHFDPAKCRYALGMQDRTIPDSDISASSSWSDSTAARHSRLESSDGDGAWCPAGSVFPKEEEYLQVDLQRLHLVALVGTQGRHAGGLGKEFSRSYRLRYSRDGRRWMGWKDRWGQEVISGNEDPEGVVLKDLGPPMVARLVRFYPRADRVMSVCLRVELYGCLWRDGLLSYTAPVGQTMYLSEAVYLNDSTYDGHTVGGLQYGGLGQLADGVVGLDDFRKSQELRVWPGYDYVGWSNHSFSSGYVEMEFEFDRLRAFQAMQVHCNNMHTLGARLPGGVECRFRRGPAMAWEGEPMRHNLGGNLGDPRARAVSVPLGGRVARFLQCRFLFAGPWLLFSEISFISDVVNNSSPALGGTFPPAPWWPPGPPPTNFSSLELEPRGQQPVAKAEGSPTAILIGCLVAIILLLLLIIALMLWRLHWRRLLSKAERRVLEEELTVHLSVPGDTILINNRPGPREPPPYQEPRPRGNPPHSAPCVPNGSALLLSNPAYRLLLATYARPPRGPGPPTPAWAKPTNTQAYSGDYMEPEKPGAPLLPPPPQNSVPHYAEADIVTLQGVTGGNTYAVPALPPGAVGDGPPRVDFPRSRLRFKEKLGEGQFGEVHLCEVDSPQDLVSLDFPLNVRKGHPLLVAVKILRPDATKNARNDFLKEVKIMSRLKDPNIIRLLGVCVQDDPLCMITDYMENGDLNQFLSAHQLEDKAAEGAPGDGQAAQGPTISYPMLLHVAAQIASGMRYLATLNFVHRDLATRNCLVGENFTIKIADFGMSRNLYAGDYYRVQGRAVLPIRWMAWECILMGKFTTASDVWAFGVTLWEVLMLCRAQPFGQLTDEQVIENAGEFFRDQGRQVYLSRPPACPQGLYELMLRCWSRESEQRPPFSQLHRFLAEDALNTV
Chain of YSK4/MAP3K19 (Q56UN5 whole entry): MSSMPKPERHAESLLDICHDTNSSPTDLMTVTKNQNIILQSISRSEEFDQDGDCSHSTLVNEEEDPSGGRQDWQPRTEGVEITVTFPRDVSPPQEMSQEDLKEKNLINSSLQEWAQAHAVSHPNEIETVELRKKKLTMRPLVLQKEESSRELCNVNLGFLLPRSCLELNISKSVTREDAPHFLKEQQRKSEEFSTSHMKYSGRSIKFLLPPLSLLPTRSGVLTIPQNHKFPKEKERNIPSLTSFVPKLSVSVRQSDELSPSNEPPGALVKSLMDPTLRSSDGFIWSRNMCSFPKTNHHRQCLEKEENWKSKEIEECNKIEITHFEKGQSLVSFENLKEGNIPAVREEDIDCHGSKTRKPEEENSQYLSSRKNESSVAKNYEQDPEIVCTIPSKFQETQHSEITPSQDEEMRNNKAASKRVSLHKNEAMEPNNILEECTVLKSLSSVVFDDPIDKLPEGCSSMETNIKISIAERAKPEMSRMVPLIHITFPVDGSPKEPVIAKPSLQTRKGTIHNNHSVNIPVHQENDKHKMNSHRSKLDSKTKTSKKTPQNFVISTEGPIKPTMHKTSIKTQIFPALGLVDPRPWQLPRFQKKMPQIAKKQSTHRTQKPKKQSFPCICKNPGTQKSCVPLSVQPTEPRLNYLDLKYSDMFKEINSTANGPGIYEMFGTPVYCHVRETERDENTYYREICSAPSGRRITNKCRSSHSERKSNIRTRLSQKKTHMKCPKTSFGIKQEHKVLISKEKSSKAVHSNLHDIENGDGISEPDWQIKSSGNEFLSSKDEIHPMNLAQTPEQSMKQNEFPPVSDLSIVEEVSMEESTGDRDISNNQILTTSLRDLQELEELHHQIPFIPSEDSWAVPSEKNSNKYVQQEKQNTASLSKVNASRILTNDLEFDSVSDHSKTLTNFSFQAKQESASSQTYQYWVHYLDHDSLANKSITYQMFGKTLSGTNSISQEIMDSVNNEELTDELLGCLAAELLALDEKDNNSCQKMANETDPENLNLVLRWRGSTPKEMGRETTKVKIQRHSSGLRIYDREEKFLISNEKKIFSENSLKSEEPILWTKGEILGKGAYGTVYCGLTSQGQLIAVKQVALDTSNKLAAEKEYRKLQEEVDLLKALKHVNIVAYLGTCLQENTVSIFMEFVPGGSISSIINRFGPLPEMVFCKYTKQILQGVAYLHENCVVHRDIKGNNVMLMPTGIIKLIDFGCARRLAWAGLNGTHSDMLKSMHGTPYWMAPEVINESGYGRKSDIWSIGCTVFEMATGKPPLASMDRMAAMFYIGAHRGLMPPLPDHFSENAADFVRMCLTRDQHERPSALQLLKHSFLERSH
Chain of FGFR2 (P21802 22-821): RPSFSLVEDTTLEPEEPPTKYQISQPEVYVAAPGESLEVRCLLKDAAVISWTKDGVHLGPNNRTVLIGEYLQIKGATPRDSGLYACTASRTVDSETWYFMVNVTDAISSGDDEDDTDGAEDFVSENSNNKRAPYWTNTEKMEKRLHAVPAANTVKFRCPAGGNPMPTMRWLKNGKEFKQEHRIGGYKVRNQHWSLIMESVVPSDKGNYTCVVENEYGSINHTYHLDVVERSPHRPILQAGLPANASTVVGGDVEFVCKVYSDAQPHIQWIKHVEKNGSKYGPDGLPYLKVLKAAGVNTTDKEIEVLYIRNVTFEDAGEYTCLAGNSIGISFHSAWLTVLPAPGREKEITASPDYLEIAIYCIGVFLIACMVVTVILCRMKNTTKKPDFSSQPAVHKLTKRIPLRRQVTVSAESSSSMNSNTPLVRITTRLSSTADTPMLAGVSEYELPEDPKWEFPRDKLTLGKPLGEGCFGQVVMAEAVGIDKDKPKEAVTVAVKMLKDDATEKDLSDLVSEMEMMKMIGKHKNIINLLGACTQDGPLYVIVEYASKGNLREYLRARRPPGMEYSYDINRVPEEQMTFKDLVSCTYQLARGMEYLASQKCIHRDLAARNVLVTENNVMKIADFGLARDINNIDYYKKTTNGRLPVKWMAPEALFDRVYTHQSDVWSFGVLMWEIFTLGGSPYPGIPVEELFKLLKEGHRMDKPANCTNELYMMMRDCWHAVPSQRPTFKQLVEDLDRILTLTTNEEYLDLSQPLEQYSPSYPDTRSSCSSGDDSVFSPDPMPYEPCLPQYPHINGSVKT

Cc1ccc(Nc2ncc3cc(-c4cc(NC(=O)c5cccc(C(F)(F)F)c5)ccc4C)ncc3n2)cn1 [Compound No. 4, N-(4-methyl-3-(2-((6-methylpyridin-3-yl)amino)pyrido[3,4-d]pyrimidin-6-yl)phenyl)-3-(trifluoromethyl)benzamide]
≥ 70%: all assays above
